From ChEMBL document CHEMBL4627246, “Pyroglutamide-Based P2X7 Receptor Antagonists Targeting Inflammatory Bowel Disease” (J Med Chem, 2020)

What was measured:
Format in all cases: cell-based
SF-539 = test: Cytotoxicity against human SF539 cells assessed as effect on cell growth at 10 uM incubated for 48 hrs by sulforhodamine B assay; details: sf-539, 48 h
A498 = test: Cytotoxicity against human A498 cells assessed as effect on cell growth at 10 uM incubated for 48 hrs by sulforhodamine B assay; details: a498, 48 h
SW-620 = test: Cytotoxicity against human SW620 cells assessed as effect on cell growth at 10 uM incubated for 48 hrs by sulforhodamine B assay; details: sw-620, 48 h
BT-549 = test: Cytotoxicity against human BT549 cells assessed as effect on cell growth at 10 uM incubated for 48 hrs by sulforhodamine B assay; details: bt-549, 48 h
SR = test: Cytotoxicity against human SR cells assessed as effect on cell growth at 10 uM incubated for 48 hrs by sulforhodamine B assay
SF-268 = test: Cytotoxicity against human SF268 cells assessed as effect on cell growth at 10 uM incubated for 48 hrs by sulforhodamine B assay; details: sf-268, 48 h
OVCAR-8 = test: Cytotoxicity against human OVCAR8 cells assessed as effect on cell growth at 10 uM incubated for 48 hrs by sulforhodamine B assay; details: ovcar-8, 48 h
SN12C = test: Cytotoxicity against human SN12C cells assessed as effect on cell growth at 10 uM incubated for 48 hrs by sulforhodamine B assay
NCI-H322M = test: Cytotoxicity against human NCI-H322M cells assessed as effect on cell growth at 10 uM incubated for 48 hrs by sulforhodamine B assay
786-0 = test: Cytotoxicity against human 786-0 cells assessed as effect on cell growth at 10 uM incubated for 48 hrs by sulforhodamine B assay; details: 786-0, 48 h
NCI-H23 = test: Cytotoxicity against human NCI-H23 cells assessed as effect on cell growth at 10 uM incubated for 48 hrs by sulforhodamine B assay; details: nci-h23, 48 h
NCI-H226 = test: Cytotoxicity against human NCI-H226 cells assessed as effect on cell growth at 10 uM incubated for 48 hrs by sulforhodamine B assay; details: nci-h226, 48 h
MDA-MB-231 = test: Cytotoxicity against human MDA-MB-231 cells assessed as effect on cell growth at 10 uM incubated for 48 hrs by sulforhodamine B assay; details: mda-mb-231, 48 h
HT-29 = test: Cytotoxicity against human HT-29 cells assessed as effect on cell growth at 10 uM incubated for 48 hrs by sulforhodamine B assay; details: ht-29, 48 h
HCC 2998 = test: Cytotoxicity against human HCC2998 cells assessed as effect on cell growth at 10 uM incubated for 48 hrs by sulforhodamine B assay; details: hcc 2998, 48 h
OVCAR-5 = test: Cytotoxicity against human OVCAR5 cells assessed as effect on cell growth at 10 uM incubated for 48 hrs by sulforhodamine B assay; details: ovcar-5, 48 h
SK-MEL-28 = test: Cytotoxicity against human SK-MEL-28 cells assessed as effect on cell growth at 10 uM incubated for 48 hrs by sulforhodamine B assay; details: sk-mel-28, 48 h
HOP-92 = test: Cytotoxicity against human HOP92 cells assessed as effect on cell growth at 10 uM incubated for 48 hrs by sulforhodamine B assay; details: hop-92, 48 h
COLO 205 = test: Cytotoxicity against human COLO205 cells assessed as effect on cell growth at 10 uM incubated for 48 hrs by sulforhodamine B assay; details: colo 205, 48 h
A549 = test: Cytotoxicity against human A549/ATCC cells assessed as effect on cell growth at 10 uM incubated for 48 hrs by sulforhodamine B assay; details: a549, 48 h

Measured: Activity

N#Cc1ccc(N2C(=O)CC[C@H]2C(=O)NCc2ccc(Cl)cc2Cl)cc1
Non-Toxic: all assays above

CN(Cc1ccccc1)C(=O)[C@@H]1CCC(=O)N1Cc1ccc(Cl)cc1Cl
Non-Toxic: all assays above

CCCCCCN1C(=O)[C@@H]2CCC(=O)N2C1N(C)C (stereo not given in full)
Non-Toxic: all assays above

O=C(NCCc1ccccc1)[C@@H]1CCC(=O)N1Cc1ccc(Br)cc1
Non-Toxic: all assays above
